Results published in ChEMBL document CHEMBL1147144, “Novel styrylpyridines as probes for SPECT imaging of amyloid plaques” (J Med Chem, 2007).

Tests used:
Heart [1] = experiment: Biodistribution in ICR mouse heart at 5 to 10 uCi, iv after 2 mins; type: ADME, organism-based; conditions: in vivo
Heart [2] = experiment: Biodistribution in ICR mouse heart at 5 to 10 uCi, iv after 30 mins; type: ADME, organism-based; conditions: in vivo, 0.5 h
Heart [3] = experiment: Biodistribution in ICR mouse heart at 5 to 10 uCi, iv after 1 hr; type: ADME, organism-based; conditions: in vivo
Kidney [4] = experiment: Biodistribution in ICR mouse kidney at 5 to 10 uCi, iv after 2 hrs; type: ADME, organism-based; conditions: in vivo
Spleen [5] = experiment: Biodistribution in ICR mouse spleen at 5 to 10 uCi, iv after 2 mins; type: ADME, organism-based; conditions: in vivo
Spleen [6] = experiment: Biodistribution in ICR mouse spleen at 5 to 10 uCi, iv after 30 mins; type: ADME, organism-based; conditions: in vivo, 0.5 h
Heart [7] = experiment: Biodistribution in ICR mouse heart at 5 to 10 uCi, iv after 2 hrs; type: ADME, organism-based; conditions: in vivo
Muscle tissue [8] = experiment: Biodistribution in ICR mouse muscle at 5 to 10 uCi, iv after 2 mins; type: ADME, organism-based; conditions: in vivo
Muscle tissue [9] = experiment: Biodistribution in ICR mouse muscle at 5 to 10 uCi, iv after 30 mins; type: ADME, organism-based; conditions: in vivo, 0.5 h
Muscle tissue [10] = experiment: Biodistribution in ICR mouse muscle at 5 to 10 uCi, iv after 1 hr; type: ADME, organism-based; conditions: in vivo
Muscle tissue [11] = experiment: Biodistribution in ICR mouse muscle at 5 to 10 uCi, iv after 2 hrs; type: ADME, organism-based; conditions: in vivo
Lung [12] = experiment: Biodistribution in ICR mouse lung at 5 to 10 uCi, iv after 2 mins; type: ADME, organism-based; conditions: in vivo
Lung [13] = experiment: Biodistribution in ICR mouse lung at 5 to 10 uCi, iv after 30 mins; type: ADME, organism-based; conditions: in vivo, 0.5 h
Lung [14] = experiment: Biodistribution in ICR mouse lung at 5 to 10 uCi, iv after 1 hr; type: ADME, organism-based; conditions: in vivo
Lung [15] = experiment: Biodistribution in ICR mouse lung at 5 to 10 uCi, iv after 2 hrs; type: ADME, organism-based; conditions: in vivo
Kidney [16] = experiment: Biodistribution in ICR mouse kidney at 5 to 10 uCi, iv after 2 mins; type: ADME, organism-based; conditions: in vivo
Kidney [17] = experiment: Biodistribution in ICR mouse kidney at 5 to 10 uCi, iv after 30 mins; type: ADME, organism-based; conditions: in vivo, 0.5 h
Kidney [18] = experiment: Biodistribution in ICR mouse kidney at 5 to 10 uCi, iv after 1 hr; type: ADME, organism-based; conditions: in vivo
Spleen [19] = experiment: Biodistribution in ICR mouse spleen at 5 to 10 uCi, iv after 1 hr; type: ADME, organism-based; conditions: in vivo
Spleen [20] = experiment: Biodistribution in ICR mouse spleen at 5 to 10 uCi, iv after 2 hrs; type: ADME, organism-based; conditions: in vivo
Liver [21] = experiment: Biodistribution in ICR mouse liver at 5 to 10 uCi, iv after 2 mins; type: ADME, organism-based; conditions: in vivo
Liver [22] = experiment: Biodistribution in ICR mouse liver at 5 to 10 uCi, iv after 30 mins; type: ADME, organism-based; conditions: in vivo, 0.5 h
Liver [23] = experiment: Biodistribution in ICR mouse liver at 5 to 10 uCi, iv after 1 hr; type: ADME, organism-based; conditions: in vivo
Liver [24] = experiment: Biodistribution in ICR mouse liver at 5 to 10 uCi, iv after 2 hrs; type: ADME, organism-based; conditions: in vivo
Zone of skin [25] = experiment: Biodistribution in ICR mouse skin at 5 to 10 uCi, iv after 2 mins; type: ADME, organism-based; conditions: in vivo
Zone of skin [26] = experiment: Biodistribution in ICR mouse skin at 5 to 10 uCi, iv after 30 mins; type: ADME, organism-based; conditions: in vivo, 0.5 h
Zone of skin [27] = experiment: Biodistribution in ICR mouse skin at 5 to 10 uCi, iv after 1 hr; type: ADME, organism-based; conditions: in vivo
Zone of skin [28] = experiment: Biodistribution in ICR mouse skin at 5 to 10 uCi, iv after 2 hrs; type: ADME, organism-based; conditions: in vivo
Brain [29] = experiment: Biodistribution in ICR mouse brain at 5 to 10 uCi, iv after 2 mins; type: ADME, organism-based; conditions: in vivo
Brain [30] = experiment: Biodistribution in ICR mouse brain at 5 to 10 uCi, iv after 30 mins; type: ADME, organism-based; conditions: in vivo, 0.5 h
Brain [31] = experiment: Biodistribution in ICR mouse brain at 5 to 10 uCi, iv after 1 hr; type: ADME, organism-based; conditions: in vivo
Brain [32] = experiment: Biodistribution in ICR mouse brain at 5 to 10 uCi, iv after 2 hrs; type: ADME, organism-based; conditions: in vivo
Thyroid gland [33] = experiment: Biodistribution in ICR mouse thyroid at 5 to 10 uCi, iv after 2 mins; type: ADME, organism-based; conditions: in vivo
Thyroid gland [34] = experiment: Biodistribution in ICR mouse thyroid at 5 to 10 uCi, iv after 30 mins; type: ADME, organism-based; conditions: in vivo, 0.5 h
Thyroid gland [35] = experiment: Biodistribution in ICR mouse thyroid at 5 to 10 uCi, iv after 1 hr; type: ADME, organism-based; conditions: in vivo
Thyroid gland [36] = experiment: Biodistribution in ICR mouse thyroid at 5 to 10 uCi, iv after 2 hrs; type: ADME, organism-based; conditions: in vivo
Brain [37] = experiment: Ratio of drug distribution in brain after 2 mins to 30 mins in ICR mouse at 5 to 10 uCi, iv; type: ADME, organism-based; conditions: in vivo
[38] = Partition coefficient, log P at pH 7.4; type: physicochemical; conditions: octanol/water
Blood [39] = experiment: Biodistribution in ICR mouse blood at 5 to 10 uCi, iv after 2 mins; type: ADME, organism-based; conditions: in vivo
Blood [40] = experiment: Biodistribution in ICR mouse blood at 5 to 10 uCi, iv after 30 mins; type: ADME, organism-based; conditions: in vivo, 0.5 h
Blood [41] = experiment: Biodistribution in ICR mouse blood at 5 to 10 uCi, iv after 1 hr; type: ADME, organism-based; conditions: in vivo
Blood [42] = experiment: Biodistribution in ICR mouse blood at 5 to 10 uCi, iv after 2 hrs; type: ADME, organism-based; conditions: in vivo

CN(C)c1ccc(/C=C/c2cnc(OCCOCCOCCF)c([125I])c2)cc1
Drug uptake (Heart [1]): 12.76 % ID/g | Drug uptake (Heart [2]): 1.63 % ID/g | Drug uptake (Heart [3]): 0.97 % ID/g | Drug uptake (Kidney [4]): 1.71 % ID/g | Drug uptake (Spleen [5]): 4.47 % ID/g | Drug uptake (Spleen [6]): 1.42 % ID/g | Drug uptake (Heart [7]): 0.73 % ID/g | Drug uptake (Muscle tissue [8]): 0.9 % ID/g | Drug uptake (Muscle tissue [9]): 1 % ID/g | Drug uptake (Muscle tissue [10]): 0.59 % ID/g | Drug uptake (Muscle tissue [11]): 0.53 % ID/g | Drug uptake (Lung [12]): 10.1 % ID/g | Drug uptake (Lung [13]): 2.5 % ID/g | Drug uptake (Lung [14]): 1.62 % ID/g | Drug uptake (Lung [15]): 1.33 % ID/g | Drug uptake (Kidney [16]): 16.6 % ID/g | Drug uptake (Kidney [17]): 3.32 % ID/g | Drug uptake (Kidney [18]): 2.3 % ID/g | Drug uptake (Spleen [19]): 0.99 % ID/g | Drug uptake (Spleen [20]): 0.79 % ID/g | Drug uptake (Liver [21]): 22.2 % ID/g | Drug uptake (Liver [22]): 9.54 % ID/g | Drug uptake (Liver [23]): 5.34 % ID/g | Drug uptake (Liver [24]): 5.62 % ID/g | Drug uptake (Zone of skin [25]): 0.54 % ID/g | Drug uptake (Zone of skin [26]): 1.47 % ID/g | Drug uptake (Zone of skin [27]): 1.59 % ID/g | Drug uptake (Zone of skin [28]): 1.23 % ID/g | Drug uptake (Brain [29]): 4.03 % ID/g | Drug uptake (Brain [30]): 1.93 % ID/g | Drug uptake (Brain [31]): 0.68 % ID/g | Drug uptake (Brain [32]): 0.26 % ID/g | Drug uptake (Thyroid gland [33]): 3.89 % ID/g | Drug uptake (Thyroid gland [34]): 16.2 % ID/g | Drug uptake (Thyroid gland [35]): 24.2 % ID/g | Drug uptake (Thyroid gland [36]): 60.8 % ID/g | Ratio (Brain [37]): 2.09 | logD [38]: 2.2 | Drug uptake (Blood [39]): 2.7 % ID/g | Drug uptake (Blood [40]): 2.05 % ID/g | Drug uptake (Blood [41]): 1.65 % ID/g | Drug uptake (Blood [42]): 1.45 % ID/g
